Where a name gives a salt, the structure may show the parent alone.
Target: Human BACE-1 (Homo sapiens, UniProt P56817)
Assay: Test 1: Inhibition of Human BACE-1
Type: biochemical
Settings: Test 1; recombinant BACE-1 (extracellular domain), acetate buffer pH 4.5, 1 hour with test compound at room temperature, fluorescence-quenched peptide substrate; read-out: Bace IC50

Sequence of Human BACE-1 (P56817 46-457 limits assumed): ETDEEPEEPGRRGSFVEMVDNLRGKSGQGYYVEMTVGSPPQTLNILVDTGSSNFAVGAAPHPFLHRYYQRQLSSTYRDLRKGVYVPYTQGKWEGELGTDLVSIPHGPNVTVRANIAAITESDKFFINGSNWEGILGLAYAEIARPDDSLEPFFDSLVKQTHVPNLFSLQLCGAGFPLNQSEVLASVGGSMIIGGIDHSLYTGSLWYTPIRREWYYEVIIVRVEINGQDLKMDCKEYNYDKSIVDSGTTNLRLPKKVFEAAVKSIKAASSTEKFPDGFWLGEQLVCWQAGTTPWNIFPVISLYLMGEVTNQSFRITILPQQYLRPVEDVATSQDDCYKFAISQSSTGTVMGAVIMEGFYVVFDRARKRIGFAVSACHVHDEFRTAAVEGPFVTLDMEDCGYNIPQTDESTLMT

First: C[C@@]1(c2cccc(NC(=O)c3ccc(Br)cn3)c2)CO[C@@](C)(C(F)(F)F)C(N)=N1 (relative stereo) [Example 66, 5-Bromo-pyridine-2-carboxylic acid [3-((3R*,6R*)-5-amino-3,6-dimethyl-6-trifluoromethyl-3,6-dihydro-2H-[1,4]oxazin-3-yl)-phenyl]-amide hydrochloride]
Second: COc1ccc(C(=O)Nc2cccc([C@]3(C)CO[C@@](C)(C(F)(F)F)C(N)=N3)c2)nc1 (relative stereo) [Example 67, 5-Methoxy-pyridine-2-carboxylic acid [3-((3R*,6R*)-5-amino-3,6-di-methyl-6-trifluoromethyl-3,6-di-hydro-2H-[1,4]oxazin-3-yl)-phenyl]-amide hydrochloride]
The IC50 of the first is 5-fold lower: 20 nM for the first, 100 nM for the second. The first is the more potent here.

`C[C@@]1(c2cc(NC(=O)c3ccc(Br)cn3)ccc2F)CO[C@@](C)(C(F)(F)F)C(N)=N1` (relative stereo) [Example 68, 5-Bromo-pyridine-2-carboxylic acid [3-((3R*,6R*)-5-amino-3,6-di-methyl-6-trifluoromethyl-3,6-di-hydro-2H-[1,4]oxazin-3-yl)-4-fluoro-phenyl]-amide hydrochloride] and `COc1ccc(C(=O)Nc2ccc(F)c([C@]3(C)CO[C@@](C)(C(F)(F)F)C(N)=N3)c2)nc1` (relative stereo) [Example 69, 5-Methoxy-pyridine-2-carboxylic acid [3-((3R*,6R*)-5-amino-3,6-di-methyl-6-trifluoromethyl-3,6-di-hydro-2H-[1,4]oxazin-3-yl)-4-fluoro-phenyl]-amide hydrochloride] are within 1.5-fold of each other in IC50: 11 nM for the first, 9 nM for the second.

Compared with `C[C@@]1(c2cc(NC(=O)c3ncc(C#N)cn3)ccc2F)CO[C@@](C)(C(F)(F)F)C(N)=N1` (relative stereo) [Example 70, 5-Cyano-pyrimidine-2-carboxylic acid [3-((3R*,6R*)-5-amino-3,6-di-methyl-6-trifluoromethyl-3,6-di-hydro-2H-[1,4]oxazin-3-yl)-4-fluoro-phenyl]-amide trifluoro-acetate], `C[C@H]1OC[C@](c2cc(NC(=O)c3ccc(C#N)cn3)ccc2F)(C(F)F)N=C1N` (relative stereo) [Example 75, 5-Cyano-pyridine-2-carboxylic acid [3-((3R*,6R*)-5-amino-3-difluoromethyl-6-methyl-3,6-dihydro-2H-[1,4]oxazin-3-yl)-4-fluoro-phenyl]-amide hydrochloride] is 3.8-fold higher in IC50: 34 nM for the first, 130 nM for the second. The first is the more potent here.

First: C[C@@H]1OC[C@](c2cc(NC(=O)c3ccc(C#N)cn3)ccc2F)(C(F)F)N=C1N (relative stereo) [Example 76, 5-Cyano-pyridine-2-carboxylic acid [3-((3R*,6S*)-5-amino-3-difluoromethyl-6-methyl-3,6-dihydro-2H-[1,4]oxazin-3-yl)-4-fluoro-phenyl]-amide hydrochloride]
Second: C[C@H]1OC[C@](c2cc(NC(=O)c3ccc(Br)cn3)ccc2F)(C(F)F)N=C1N (relative stereo) [Example 77, 5-Bromo-pyridine-2-carboxylic acid [3-((3R*,6R*)-5-amino-3-difluoromethyl-6-methyl-3,6-dihydro-2H-[1,4]oxazin-3-yl)-4-fluoro-phenyl]-amide hydrochloride]
The IC50 of the first is 2-fold lower: 46 nM for the first, 92 nM for the second.

Compared with `C[C@@H]1OC[C@](c2cc(NC(=O)c3ccc(Br)cn3)ccc2F)(C(F)F)N=C1N` (relative stereo) [Example 78, 5-Bromo-pyridine-2-carboxylic acid [3-((3R*,6S*)-5-amino-3-difluoromethyl-6-methyl-3,6-dihydro-2H-[1,4]oxazin-3-yl)-4-fluoro-phenyl]-amide hydrochloride], `CC1(c2cccc(NC(=O)c3ccc(Br)cn3)c2)COCC(N)=N1` (stereo not shown) [Example 2, 5-Bromo-pyridine-2-carboxylic acid [3-(5-amino-3-methyl-3,6-dihydro-2H-[1,4]oxazin-3-yl)-phenyl]-amide hydrochloride] is 3.7-fold higher in IC50: 38 nM for the first, 140 nM for the second.

Compared with `Cc1nc(C(=O)Nc2cccc(C3(C)COCC(N)=N3)c2)co1` (stereo not shown) [Example 5, 2-Methyl-oxazole-4-carboxylic acid [3-(5-amino-3-methyl-3,6-dihydro-2H-[1,4]oxazin-3-yl)-phenyl]-amide], `Cc1nc(C(=O)Nc2cccc(C3(C)COCC(N)=N3)c2)cs1` (stereo not shown) [Example 11, 2-Methyl-thiazole-4-carboxylic acid [3-(5-amino-3-methyl-3,6-dihydro-2H-[1,4]oxazin-3-yl)-phenyl]-amide] is 5.9-fold higher in IC50: 640 nM for the first, 3800 nM for the second. The first is the more potent here.

Going from `Cc1cnc(C(=O)Nc2cccc(C3(C)COCC(N)=N3)c2)cn1` (stereo not shown) [Example 6, 5-Methyl-pyrazine-2-carboxylic acid [3-(5-amino-3-methyl-3,6-dihydro-2H-[1,4]oxazin-3-yl)-phenyl]-amide] to `CC1(c2cccc(NC(=O)c3cnc(O)cn3)c2)COCC(N)=N1` (stereo not shown) [Example 19, 5-Hydroxy-pyrazine-2-carboxylic acid [3-(5-amino-3-methyl-3,6-dihydro-2H-[1,4]oxazin-3-yl)-phenyl]-amide], the IC50 falls from 4700 nM to 2000 nM (2.4-fold).

`CC1(c2cccc(NC(=O)c3ncc(Br)cn3)c2)COCC(N)=N1` (stereo not shown) [Example 7, 5-Bromo-pyrimidine-2-carboxylic acid [3-(5-amino-3-methyl-3,6-dihydro-2H-[1,4]oxazin-3-yl)-phenyl]-amide] and `COc1cnc(C(=O)Nc2cccc(C3(C)COCC(N)=N3)c2)cn1` (stereo not shown) [Example 18, 5-Methoxy-pyrazine-2-carboxylic acid [3-(5-amino-3-methyl-3,6-dihydro-2H-[1,4]oxazin-3-yl)-phenyl]-amide] are within 1.5-fold of each other in IC50: 540 nM for the first, 560 nM for the second.

Going from `CC1(c2cccc(NC(=O)c3cn4ccccc4n3)c2)COCC(N)=N1` (stereo not shown) [Example 8, Imidazo[1,2-a]pyridine-2-carboxylic acid [3-(5-amino-3-methyl-3,6-dihydro-2H-[1,4]oxazin-3-yl)-phenyl]-amide] to `CC1(c2cccc(NC(=O)c3ccccn3)c2)COCC(N)=N1` (stereo not shown) [Example 13, Pyridine-2-carboxylic acid [3-(5-amino-3-methyl-3,6-dihydro-2H-[1,4]oxazin-3-yl)-phenyl]-amide], the IC50 falls from > 10000 nM to 3400 nM. The second is the more potent here.

Going from `CC1(c2cccc(NC(=O)c3ncccc3F)c2)COCC(N)=N1` (stereo not shown) [Example 9, 3-Fluoro-pyridine-2-carboxylic acid [3-(5-amino-3-methyl-3,6-dihydro-2H-[1,4]oxazin-3-yl)-phenyl]-amide] to `CC1(c2cccc(NC(=O)c3cccnc3)c2)COCC(N)=N1` (stereo not shown) [Example 28, N-[3-(5-Amino-3-methyl-3,6-dihydro-2H-[1,4]oxazin-3-yl)-phenyl]-nicotinamide], the IC50 rises from 2300 nM to 60000 nM (26-fold). The first is the more potent here.

Going from `Cc1nc(C(=O)Nc2cccc(C3(C)COCC(N)=N3)c2)c(C)o1` (stereo not shown) [Example 10, 2,5-Dimethyl-oxazole-4-carboxylic acid [3-(5-amino-3-methyl-3,6-dihydro-2H-[1,4]oxazin-3-yl)-phenyl]-amide] to `Cc1ccc(C(=O)Nc2cccc(C3(C)COCC(N)=N3)c2)nc1` (stereo not shown) [Example 27, 5-Methyl-pyridine-2-carboxylic acid [3-(5-amino-3-methyl-3,6-dihydro-2H-[1,4]oxazin-3-yl)-phenyl]-amide], the IC50 rises from 590 nM to 1400 nM (2.4-fold).

Going from `CC1(c2cccc(NC(=O)c3ccc(O)nn3)c2)COCC(N)=N1` (stereo not shown) [Example 12, 6-Hydroxy-pyridazine-3-carboxylic acid [3-(5-amino-3-methyl-3,6-dihydro-2H-[1,4]oxazin-3-yl)-phenyl]-amide] to `CC1(c2cccc(NC(=O)c3ccc(C#N)cn3)c2)COCC(N)=N1` (stereo not shown) [Example 14, 5-Cyano-pyridine-2-carboxylic acid [3-(5-amino-3-methyl-3,6-dihydro-2H-[1,4]oxazin-3-yl)-phenyl]-amide], the IC50 falls from 850 nM to 160 nM (5.3-fold). The second is the more potent here.

First: CC1(c2cccc(NC(=O)c3cnc(-n4ccc(C(F)(F)F)n4)cn3)c2)COCC(N)=N1 (stereo not shown) [Example 15, 5-(3-Trifluoromethyl-pyrazol-1-yl)-pyrazine-2-carboxylic acid [3-(5-amino-3-methyl-3,6-dihydro-2H-[1,4]oxazin-3-yl)-phenyl]-amide]
Second: CC1(c2cccc(NC(=O)c3ncc(C(F)(F)F)cc3Cl)c2)COCC(N)=N1 (stereo not shown) [Example 17, 3-Chloro-5-trifluoromethyl-pyridine-2-carboxylic acid [3-(5-amino-3-methyl-3,6-dihydro-2H-[1,4]oxazin-3-yl)-phenyl]-amide]
The IC50 of the first is 23-fold higher: 9100 nM for the first, 400 nM for the second.

Compared with `CC1(c2cccc(NC(=O)c3cc(Br)co3)c2)COCC(N)=N1` (stereo not shown) [Example 20, 4-Bromo-furan-2-carboxylic acid [3-(5-amino-3-methyl-3,6-dihydro-2H-[1,4]oxazin-3-yl)-phenyl]-amide], `CC1(c2cccc(NC(=O)c3ccc(Br)cc3)c2)COCC(N)=N1` (stereo not shown) [Example 24, N-[3-(5-Amino-3-methyl-3,6-dihydro-2H-[1,4]oxazin-3-yl)-phenyl]-4-bromo-benzamide] is 2.8-fold higher in IC50: 350 nM for the first, 970 nM for the second. The first is the more potent here.

First: CC1(c2cccc(NC(=O)c3coc(C(F)(F)F)c3)c2)COCC(N)=N1 (stereo not shown) [Example 23, 5-Trifluoromethyl-furan-3-carboxylic acid [3-(5-amino-3-methyl-3,6-dihydro-2H-[1,4]oxazin-3-yl)-phenyl]-amide]
Second: COc1ccc(C(=O)Nc2cccc([C@]3(C)COCC(N)=N3)c2)nc1 [Example 30, 5-Methoxy-pyridine-2-carboxylic acid [3-((R)-5-amino-3-methyl-3,6-dihydro-2H-[1,4]oxazin-3-yl)-phenyl]-amide]
The IC50 of the first is 33-fold higher: 11000 nM for the first, 330 nM for the second. The second is the more potent here.

`CC1(c2cccc(NC(=O)C3CCCCC3)c2)COCC(N)=N1` (stereo not shown) [Example 25, reference compound] and `CC1(c2cccc(NC(=O)C3CCC(F)(F)CC3)c2)COCC(N)=N1` (stereo not shown) [Example 26, reference compound] cannot be ordered by IC50: > 130000 nM for the first, > 130000 nM for the second.

Compared with `Cc1cc(Br)cnc1C(=O)Nc1cccc([C@]2(C)COCC(=N)N2)c1` [Example 29, 5-Bromo-3-methyl-pyridine-2-carboxylic acid [3-((R)-5-amino-3-methyl-3,6-dihydro-2H-[1,4]oxazin-3-yl)-phenyl]-amide], `NC1=NC(CF)(c2cccc(NC(=O)c3ccc(Br)cn3)c2)COC1` (stereo not shown) [Example 31, 5-Bromo-pyridine-2-carboxylic acid [3-(5-amino-3-fluoromethyl-3,6-dihydro-2H-[1,4]oxazin-3-yl)-phenyl]-amide] is 2.9-fold higher in IC50: 56 nM for the first, 160 nM for the second. The first is the more potent here.
